The target of test [1] is T1, EGFR kinase (Homo sapiens, UniProt P00533).
T1 construct: purchased Invitrogen PV3872
Briefly: Kinase assay for EGFR (TR-FRET LanthaScreen). In kind it is biochemical. Conditions: % inhibition at 100 nM or IC50 (nM). As for the experimental part: The extent to which the compounds of the present invention modulate EGFR kinase activity can be determined using time-resolved Fret (TR-FRET) assay (LanthaScreen® kinase activity assay, from Invitrogen). The assay employs EGFR kinase (PV3872, Invitrogen), Tb-Py20 antibody (PV3552, Invitrogen) and fluorescein-poly GT (PV3610, In vitrogen)
The assay is performed in a Black 384-well plate (available from Corning). EGFR kinase (is diluted in TR-FRET Dilution Buffer (PV3189, InVitrogen) at concentration of 0.4 ug/ml as stock solution, and then 2-fold serial diluted. Addition of 1 mM ATP initiated the reaction, and the reaction is incubated for 1 h reaction at room temperature. 10 μL of the Tb-antibody (from Invitrogen)+EDTA (from Invitrogen) solution prepared was added to each well of the assay plate and mix briefly, and incubated for 30 min. The signal is monitored by using M5 microplate reader (Ex=332 nm, Em=488 nm and 518 nm). Each compound is tested in duplicate wells. EGFR without compound is used as control. Staurosporine (available from Sigma) is used as positive control compound. Inhibition was calculated as percentage of the EGFR activity (without compound)

Test [2] deals with BT474 cells. The experiment in a line: Cell proliferation inhibition assay for BT474 (CCK-8). It counts as cell-based. Conditions: Homo sapiens, BT-474; 72 h, 8 points. How it is done: Human breast cancer BT474 cells was cultured in low glucose DMEM (Life Technologies 12320-032) containing 10% fetal bovine serum (FBS) at 37° C. in a humidified 10% CO2, 90% air incubator. Cells were harvested using trypsin/EDTA, counted using a haemocytometer, and plated 10000 cell/well in a 96-well clear tissue culture plate. The cells were incubated for 24 h at 37° C. to allow adherence. A serials of concentrations of each compound (ranging from 30 uM to […], 5-fold dilution) in 96-well plate, and incubated for 72 h. Each concentration was tested in triplicate wells. During the cell proliferation assay, BT474 cells were cultured in low-glucose DMEM containing 5% FBS, 50 ug/ml gentamicin, and 0.3% v/v DMSO. The culture medium was removed via aspiration, and the cell viability was detected by using CCK-8 cell proliferation kit.

T1 sequence (P00533 25-1210): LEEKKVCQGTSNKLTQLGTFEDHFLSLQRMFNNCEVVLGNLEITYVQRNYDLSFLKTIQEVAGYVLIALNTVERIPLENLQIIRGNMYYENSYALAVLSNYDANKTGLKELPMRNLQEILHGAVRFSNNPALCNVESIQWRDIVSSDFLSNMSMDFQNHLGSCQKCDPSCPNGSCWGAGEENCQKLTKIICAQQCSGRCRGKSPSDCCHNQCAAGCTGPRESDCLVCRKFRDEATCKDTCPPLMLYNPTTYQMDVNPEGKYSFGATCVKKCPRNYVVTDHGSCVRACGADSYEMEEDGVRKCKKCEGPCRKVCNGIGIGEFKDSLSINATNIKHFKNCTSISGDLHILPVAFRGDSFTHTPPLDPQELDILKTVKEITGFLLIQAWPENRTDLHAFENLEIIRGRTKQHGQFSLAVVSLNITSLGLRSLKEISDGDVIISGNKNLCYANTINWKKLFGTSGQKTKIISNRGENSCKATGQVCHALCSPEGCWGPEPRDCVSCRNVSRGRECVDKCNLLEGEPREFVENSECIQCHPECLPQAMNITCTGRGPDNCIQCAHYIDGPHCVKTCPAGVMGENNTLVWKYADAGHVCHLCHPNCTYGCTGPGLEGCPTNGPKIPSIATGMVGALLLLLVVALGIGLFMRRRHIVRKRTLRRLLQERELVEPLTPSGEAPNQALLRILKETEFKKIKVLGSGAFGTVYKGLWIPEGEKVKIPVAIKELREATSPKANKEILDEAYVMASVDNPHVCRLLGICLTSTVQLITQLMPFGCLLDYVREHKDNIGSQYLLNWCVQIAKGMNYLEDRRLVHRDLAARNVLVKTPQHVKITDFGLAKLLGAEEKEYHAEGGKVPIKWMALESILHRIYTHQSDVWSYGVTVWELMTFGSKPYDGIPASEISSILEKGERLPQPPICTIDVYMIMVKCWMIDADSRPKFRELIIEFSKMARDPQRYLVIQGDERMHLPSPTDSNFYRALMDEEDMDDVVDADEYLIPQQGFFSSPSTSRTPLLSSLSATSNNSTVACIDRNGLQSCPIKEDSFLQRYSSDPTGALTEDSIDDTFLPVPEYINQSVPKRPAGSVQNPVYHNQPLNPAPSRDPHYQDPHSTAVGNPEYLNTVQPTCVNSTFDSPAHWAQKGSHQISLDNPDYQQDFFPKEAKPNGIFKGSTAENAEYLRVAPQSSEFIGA

With `CP(C)(=O)CNCc1ccc(-c2ccc3ncnc(Nc4ccc(OCc5cccc(F)c5)c(Cl)c4)c3c2)o1` [Example 3, 6-(5-(((dimethylphosphinoyl)methylamino)methyl)furan-2-yl)-N-(4-(3-fluorobenzyloxy)-3-chlorophenyl)quinazolin-4-amine], in test [1], the “EGFR inhibition inhibit % at 100 nM or IC50 (nM)” value (“EGFR inhibition inhibit %” below) was “++ (>50% inhibition at 100 nM, or IC50 <100 nM for EGFR or ErbB2 kinases)”. Besides, in test [2], the IC50 was 100 to 1000 nM.
As for `CCOP1(=O)CCN(Cc2ccc(-c3ccc4ncnc(Nc5ccc(OCc6cccc(F)c6)c(Cl)c5)c4c3)o2)CC1` [Example 17, N-(3-chloro-4-(3-fluorobenzyloxy)phenyl)-6-(5-((4-ethoxy-1,4-azaphosphino-1-yl)methyl)furan-2-yl)quinazolin-4-amine], in test [1], the “EGFR inhibition inhibit %” value is recorded as “++ (>50% inhibition at 100 nM, or IC50 <100 nM for EGFR or ErbB2 kinases)”. The same molecule showed a concentration for half-maximal inhibition (IC50) in test [2] of under 100 nM.
For `CP1(=O)CCN(Cc2ccc(-c3ccc4ncnc(Nc5ccc(OCc6cccc[n+]6[O-])c(Cl)c5)c4c3)o2)CC1` [Example 15, 2-((2-chloro-4-(6-(5-((4-methyl-1,4-azaphosphino-1-yl)methyl)furan-2-yl)quinazolin-4-ylamino)phenoxy)methyl)pyridine 1-oxide], the “EGFR inhibition inhibit %” value in test [1] is recorded as “++ (>50% inhibition at 100 nM, or IC50 <100 nM for EGFR or ErbB2 kinases)”. This molecule yielded an IC50 in test [2] of under 100 nM.
Turning to `CP1(=O)CCN(Cc2ccc(-c3ccc4ncnc(Nc5ccc(OCc6cccc(F)c6)c(Cl)c5)c4c3)o2)CC1` [Example 1, N-(3-chloro-4-(3-fluorobenzyloxy)phenyl)-6-(5-((4-methyl-1,4-azaphosphino-1-yl)methyl)furan-2-yl)quinazolin-4-amine], the “EGFR inhibition inhibit %” value in test [1] is reported as “++ (>50% inhibition at 100 nM, or IC50 <100 nM for EGFR or ErbB2 kinases)”. In test [2], this molecule came in with an IC50 of under 100 nM.
For the molecule `C#Cc1cc(Nc2ncnc3ccc(-c4ccc(CN5CCP(C)(=O)CC5)o4)cc23)ccc1OCc1cccc(F)c1` [Example 23, N-(4-(3-fluorobenzyloxy)-3-ethynylphenyl)-6-(5-((4-methyl-1,4-azaphosphino-1-yl)methyl)furan-2-yl)quinazolin-4-amine], in test [1], the “EGFR inhibition inhibit %” value is “++ (>50% inhibition at 100 nM, or IC50 <100 nM for EGFR or ErbB2 kinases)”. In test [2], the half-maximal inhibitory concentration (IC50) fell in the range of 100 to 1000 nM.
As for `CP(C)(=O)CN1CCN(Cc2ccc(-c3ccc4ncnc(Nc5ccc(OCc6cccc(F)c6)c(Cl)c5)c4c3)o2)CC1` [Example 13, N-(4-(3-fluorobenzyloxy)-3-chlorophenyl)-6-(5-((4-((dimethylphosphinoyl)-methyl)piperazin-1-yl)methyl)furan-2-yl)quinazolin-4-amine], the “EGFR inhibition inhibit %” value in test [1] was “++ (>50% inhibition at 100 nM, or IC50 <100 nM for EGFR or ErbB2 kinases)”. The half-maximal inhibitory concentration (IC50) in test [2] lay within 100 to 1000 nM.
As to `CP1(=O)CCN(Cc2ccc(-c3ccc4ncnc(Nc5ccc(OCc6ccccn6)c(Cl)c5)c4c3)o2)CC1` [Example 8, N-(3-chloro-4-(pyridin-2-ylmethoxy)phenyl)-6-(5-((4-methyl-1,4-azaphosphino-1-yl)methyl)furan-2-yl)quinazolin-4-amine], the “EGFR inhibition inhibit %” value in test [1] is given as “++ (>50% inhibition at 100 nM, or IC50 <100 nM for EGFR or ErbB2 kinases)”. Besides, the IC50 in test [2] was under 100 nM.
For `Cc1cccc(COc2ccc(Nc3ncnc4ccc(-c5ccc(CN6CCP(C)(=O)CC6)o5)cc34)cc2Cl)n1` [Example 9, N-(3-chloro-4-((6-methylpyridin-2-yl)methoxy)phenyl)-6-(5-((4-methyl-1,4-azaphosphino-1-yl)methyl)furan-2-yl)quinazolin-4-amine], the “EGFR inhibition inhibit %” value in test [1] is “+ (between 20% to 50% inhibition at 100 nM, or IC50 between 100 and 1000 nM)”. The molecule further had a 50% inhibitory concentration (IC50) in test [2] of 100 to 1000 nM.
Take `CP1(=O)CCN(CC#Cc2ccc3ncnc(Nc4ccc5c(cnn5Cc5cccc(F)c5)c4)c3c2)CC1` [Example 28, N-(1-(3-fluorobenzyl)-1H-indazol-5-yl)-6-(3-(4-methyl-1,4-azaphosphino-1-yl)prop-1-ynyl)quinazolin-4-amine]: the “EGFR inhibition inhibit %” value in test [1] is on record as “++ (>50% inhibition at 100 nM, or IC50 <100 nM for EGFR or ErbB2 kinases)”. This molecule showed an IC50 in test [2] of 100 to 1000 nM.
In the case of `CC1(C)COP(=O)(CCNCc2ccc(-c3ccc4ncnc(Nc5ccc(OCc6cccc(F)c6)c(Cl)c5)c4c3)o2)OC1` [Example 7, N-(3-chloro-4-(3-fluorobenzyloxy)phenyl)-6-(5-((2-(5,5-dimethyl-1,3,2-dioxaphosphino-2-yl)ethylamino)methyl)furan-2-yl)quinazolin-4-amine], the “EGFR inhibition inhibit %” value in test [1] is “++ (>50% inhibition at 100 nM, or IC50 <100 nM for EGFR or ErbB2 kinases)”.
`CP(C)(=O)CCNCc1ccc(-c2ccc3ncnc(Nc4ccc(OCc5cccc(F)c5)c(Cl)c4)c3c2)o1` [Example 2, 6-(5-((2-(dimethylphosphino)ethylaminoyl)methyl)furan-2-yl)-N-(4-(3-fluorobenzyloxy)-3-chlorophenyl)quinazolin-4-amine]: the “EGFR inhibition inhibit %” value in test [1] is “++ (>50% inhibition at 100 nM, or IC50 <100 nM for EGFR or ErbB2 kinases)”. This molecule also came in with a 50% inhibitory concentration (IC50) in test [2] of under 100 nM.
Consider `Cc1cccc(COc2ccc(Nc3ncnc4ccc(-c5ccc(CN6CCP(C)(=O)CC6)o5)cc34)cc2Cl)[n+]1[O-]` [Example 24, 2-((2-chloro-4-(6-(5-((4-methyl-1,4-azaphosphino-1-yl)methyl)furan-2-yl)quinazolin-4-ylamino)phenoxy)methyl)-6-methylpyridine 1-oxide], for which the “EGFR inhibition inhibit %” value in test [1] is “++ (>50% inhibition at 100 nM, or IC50 <100 nM for EGFR or ErbB2 kinases)”. Also, in test [2], the IC50 lay within 100 to 1000 nM.
Take `CP(C)(=O)CCNCc1ccc(-c2ccc3ncnc(Nc4ccc5c(cnn5Cc5cccc(F)c5)c4)c3c2)o1` [Example 25, 6-(5-((2-(dimethylphosphinoyl)ethylamino)methyl)furan-2-yl)-N-(1-(3-fluorobenzyl)-1H-indazol-5-yl)quinazolin-4-amine]: the “EGFR inhibition inhibit %” value in test [1] is given as “++ (>50% inhibition at 100 nM, or IC50 <100 nM for EGFR or ErbB2 kinases)”. In test [2], this molecule yielded a half-maximal inhibitory concentration (IC50) of 100 to 1000 nM.
For `COP(=O)(CCNCc1ccc(-c2ccc3ncnc(Nc4ccc(OCc5cccc(F)c5)c(Cl)c4)c3c2)o1)OC` [Example 6, dimethyl 2-((5-(4-(3-chloro-4-(3-fluorobenzyloxy)phenylamino)quinazolin-6-yl)furan-2-yl)methylamino)ethylphosphonate], the “EGFR inhibition inhibit %” value in test [1] was “++ (>50% inhibition at 100 nM, or IC50 <100 nM for EGFR or ErbB2 kinases)”.
As to `CCN(CCP(C)(C)=O)Cc1ccc(-c2ccc3ncnc(Nc4ccc5c(cnn5Cc5cccc(F)c5)c4)c3c2)o1` [Example 26], the “EGFR inhibition inhibit %” value in test [1] is reported as “++ (>50% inhibition at 100 nM, or IC50 <100 nM for EGFR or ErbB2 kinases)”. This molecule gave an IC50 in test [2] of 100 to 1000 nM.
`CP(C)(=O)CCN(CCO)Cc1ccc(-c2ccc3ncnc(Nc4ccc5c(cnn5Cc5cccc(F)c5)c4)c3c2)o1` [Example 27, 2-(N-((5-(4-(1-(3-fluorobenzyl)-1H-indazol-5-ylamino)quinazolin-6-yl)furan-2-yl)methyl)-N-(2-(dimethylphosphinoyl)ethyl)amino)ethanol]: the “EGFR inhibition inhibit %” value in test [1] is recorded as “++ (>50% inhibition at 100 nM, or IC50 <100 nM for EGFR or ErbB2 kinases)”. In test [2], the IC50 is under 100 nM.
Turning to `CP1(=O)CCN(Cc2ccc(-c3ccc4ncnc(Nc5ccc(Br)cc5F)c4c3)o2)CC1` [Example 20, N-(4-Bromo-2-fluorophenyl)-6-(5-((4-methyl-1,4-azaphosphino-1-yl)methyl)furan-2-yl)quinazolin-4-amine], the “EGFR inhibition inhibit %” value in test [1] was “+ (between 20% to 50% inhibition at 100 nM, or IC50 between 100 and 1000 nM)”.

The values are drawn from patent publication US8987284B2, “Phosphorus containing quinazoline compounds and methods of use” (Newgen Therapeutics, Inc., priority 2009, dated 2015).
